Assay results as given in US7820675B2, “Benzofuran compounds” (Biovitrum AB, priority 2003, dated 2010).
Counter-ions that a name gives are not always drawn.

Each compound was assayed against T1, human 5-HT6 receptor (Homo sapiens, UniProt P50406) (assay: 5-HT6 binding assay ([3H]-LSD competition, SPA, membranes of transfected HEK293 cells)). Details: competitive binding, [3H]-LSD radioligand, Ki calculated from IC50 (Cheng).
T1 construct: expressed in transfected cells; host or cells: HEK293
T1 sequence (P50406 whole entry): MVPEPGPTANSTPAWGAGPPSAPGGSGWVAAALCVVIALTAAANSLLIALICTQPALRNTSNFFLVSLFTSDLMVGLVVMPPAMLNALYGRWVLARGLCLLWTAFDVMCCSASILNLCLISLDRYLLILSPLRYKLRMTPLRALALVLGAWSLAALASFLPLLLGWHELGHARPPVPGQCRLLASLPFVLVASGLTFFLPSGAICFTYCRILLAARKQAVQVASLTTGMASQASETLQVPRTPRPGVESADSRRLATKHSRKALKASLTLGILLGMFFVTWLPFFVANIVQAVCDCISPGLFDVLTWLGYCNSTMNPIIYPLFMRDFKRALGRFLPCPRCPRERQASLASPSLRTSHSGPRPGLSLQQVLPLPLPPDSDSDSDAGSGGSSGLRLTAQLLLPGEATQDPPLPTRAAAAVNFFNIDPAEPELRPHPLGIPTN

Compound	Ki [nM]
COc1ccc(C)cc1S(=O)(=O)Nc1cc(CN2CCNCC2)c2occc2c1 [Example 54, 2-Methoxy-5-methyl-N-[7-(piperazin-1-ylmethyl)-1-benzofuran-5-yl]benzenesulfonamide hydrochloride]	17.4
Cc1cccc(S(=O)(=O)Nc2cc(O[C@@H]3CCNC[C@H]3F)c3occc3c2)c1 (relative stereo) [Example 89, N-(7-{[trans-3-Fluoropiperidin-4-yl]oxy}-1-benzofuran-5-yl)-3-methylbenzenesulfonamide hydrochloride]	14
O=S(=O)(Nc1cccc2cc(C3=CN4CCC3CC4)oc12)c1ccccc1 [Example 36, N-[2-(1-Azabicyclo[2.2.2]oct-2-en-3-yl)-1-benzofuran-7-yl]benzenesulfonamide hydrochloride]	20
COc1ccc(C)cc1NS(=O)(=O)c1cc(CN2CCNC(C)C2)c2occc2c1 (stereo not shown) [Example 92, N-(2-Methoxy-5-methylphenyl)-7-[(3-methylpiperazin-1-yl)methyl]-1-benzofuran-5-sulfonamide hydrochloride]	5.56
O=S(=O)(Nc1cc(O[C@@H]2CCNC[C@H]2F)c2occc2c1)c1ccccc1C(F)(F)F (relative stereo) [Example 87, N-(7-{[trans-3-Fluoropiperidin-4-yl]oxy}-1-benzofuran-5-yl)-2-(trifluoromethyl)benzenesulfonamide hydrochloride]	5.3
COc1ccc(C)cc1S(=O)(=O)Nc1cc(O[C@H]2CCNC[C@H]2F)c2occc2c1 (relative stereo) [Example 84, N-(7-{[cis-3-Fluoropiperidin-4-yl]oxy}-1-benzofuran-5-yl)-2-methoxy-5-methylbenzenesulfonamide hydrochloride]	7.5
COc1ccc(C)cc1S(=O)(=O)Nc1cc(O[C@@H]2CCNC[C@H]2F)c2occc2c1 (relative stereo) [Example 85, N-(7-{[trans-3-Fluoropiperidin-4-yl]oxy}-1-benzofuran-5-yl)-2-methoxy-5-methylbenzenesulfonamide hydrochloride]	7
O=S(=O)(Nc1cc(O[C@H]2CCNC[C@H]2F)c2occc2c1)c1ccccc1C(F)(F)F (relative stereo) [Example 86, N-(7-{[cis-3-Fluoropiperidin-4-yl]oxy}-1-benzofuran-5-yl)-2-(trifluoromethyl)benzenesulfonamide hydrochloride]	7
O=S(=O)(Nc1cc(O[C@@H]2CCNC[C@H]2F)c2occc2c1)c1cc(F)ccc1Cl (relative stereo) [Example 91, 2-Chloro-5-fluoro-N-(7-{[trans-3-fluoropiperidin-4-yl]oxy}-1-benzofuran-5-yl)benzenesulfonamide hydrochloride]	56
CCN1CCC[C@@H]1CNc1cc(NS(=O)(=O)c2ccccc2C(F)(F)F)cc2ccoc12 [Example 67, N-[7-({[(2R)-1-Ethylpyrrolidin-2-yl]methyl}amino)-1-benzofuran-5-yl]-2-(trifluoromethyl)benzenesulfonamide hydrochloride]	13

Same assay, conditions: over three experiments

Compound	Hill coefficient
NCCc1c[nH]c2ccc(O)cc12 [Example 5-HT, 5-hydroxytryptamine, reference compound]	0.94 (SD 0.09)

Each compound was assayed against T1, human 5-HT6 receptor (assay: 5-HT6 intrinsic activity assay (inhibition of 5-HT induced increase in cAMP)). Details: read-out: fKi.
Type: cell-based
Description: Briefly, HEK293/5-HT6 cells were seeded in polylysine coated 96-well plates at a density of 25,000/well and grown in DMEM (Dulbecco's Modified Eagle Medium) (without phenol-red) containing 5% dialyzed Foetal Bovine Serum for 48 h at 37° C. in a 5% CO2 incubator. The medium was then aspirated and replaced by 0.1 mL assay medium (Hanks Balance Salt Solution containing 20 mM HEPES, 1.5 mM isobutylmethylxanthine and 1 mg/mL bovine serum albumin). After addition of test substances, 50 μl dissolved in assay medium, the cells were incubated for 10 min at 37° C. in a 5% CO2 incubator. The medium was again aspirated and the cAMP content was determined using a radioactive cAMP kit (Amersham Pharmacia Biotech, BIOTRAK RPA559).
Table 4. Functional in vitro data at the h-5-HT receptor (fKi). Data are expressed as fKi,=IC50/(1+[5HT]/EC50).

Compound	Ki [nM]
Fc1ccc(CNc2cc(N3CCNCC3)c3occc3c2)cc1F [Example 12, N-(3,4-Difluorobenzyl)-7-piperazin-1-yl-1-benzofuran-5-amine hydrochloride]	87
CNCCCN(C)c1cc(NS(=O)(=O)c2ccccc2)cc2ccoc12 [Example 1, N-(7-{Methyl[3-(methylamino)propyl]amino}-1-benzofuran-5-yl)benzenesulfonamide hydrochloride]	87
COc1ccc(C)cc1S(=O)(=O)Nc1cc(C2=CN3CCC2CC3)c2occc2c1 [Example 33, N-[7-(1-Aza-bicyclo[2.2.2]oct-2-en-3-yl)-benzofuran-5-yl]-2-methoxy-5-methylbenzenesulfonamide hydrochloride]	20
COc1ccc(C)cc1S(=O)(=O)Nc1cc(-c2ccncc2)c2occc2c1 [Example 28, 2-Methoxy-5-methyl-N-(7-pyridin-4-yl-1-benzofuran-5-yl)benzenesulfonamide]	66
O=S(=O)(Nc1cc(-c2cncnc2)c2occc2c1)c1ccccc1 [Example 32, N-(7-Pyrimidin-5-yl-1-benzofuran-5-yl)benzenesulfonamide hydrochloride]	54
